From patent publication US20240182531A1, “KV1.3 Blockers” (priority 2021, published 2024)
Where a SMILES comes first, the peptide text is derived from it. Bridges are numbered along the chain shown (N, C = ends). [ ]: non-standard residue; d: D form. Nle = CCCC[C@H](N)C(=O)O

Tests used:
human Kv1.1 = target: T1, human Kv1.1 (Homo sapiens, UniProt Q09470); experiment: cell-based; conditions: ratio of patch clamp IC50 values
T1 construct: expressed in transfected cells; host or cells: CHO

human Kv1.2 = target: T2, human Kv1.2 (Homo sapiens, UniProt P16389); experiment: cell-based; conditions: ratio of patch clamp IC50 values
T2 construct: expressed in transfected cells; host or cells: CHO

human Kv1.6 = target: T3, human Kv1.6 (Homo sapiens, UniProt P17658); experiment: cell-based; conditions: ratio of patch clamp IC50 values
T3 construct: expressed in transfected cells; host or cells: CHO

Rat whole blood = Rat whole blood (Rattus norvegicus, UniProt P15384); type: cell-based; conditions: IL-17A release, thapsigargin, 24 Hr, at least 2 replicates
Chain of Rat whole blood (P15384 whole entry): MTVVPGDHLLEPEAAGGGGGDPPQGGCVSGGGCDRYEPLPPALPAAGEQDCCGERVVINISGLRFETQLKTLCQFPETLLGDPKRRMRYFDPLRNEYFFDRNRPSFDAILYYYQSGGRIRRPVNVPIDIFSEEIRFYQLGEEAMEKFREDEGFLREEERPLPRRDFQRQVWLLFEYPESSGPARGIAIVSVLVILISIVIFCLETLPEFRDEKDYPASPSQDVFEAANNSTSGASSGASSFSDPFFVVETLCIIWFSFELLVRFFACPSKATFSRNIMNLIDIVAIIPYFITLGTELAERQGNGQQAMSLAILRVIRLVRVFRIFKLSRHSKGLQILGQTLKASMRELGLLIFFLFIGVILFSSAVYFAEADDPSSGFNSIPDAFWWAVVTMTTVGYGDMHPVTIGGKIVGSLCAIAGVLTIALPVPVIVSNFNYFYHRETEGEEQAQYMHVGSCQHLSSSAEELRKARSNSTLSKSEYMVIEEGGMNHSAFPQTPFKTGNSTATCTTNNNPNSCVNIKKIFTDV

T3 sequence (P17658 whole entry): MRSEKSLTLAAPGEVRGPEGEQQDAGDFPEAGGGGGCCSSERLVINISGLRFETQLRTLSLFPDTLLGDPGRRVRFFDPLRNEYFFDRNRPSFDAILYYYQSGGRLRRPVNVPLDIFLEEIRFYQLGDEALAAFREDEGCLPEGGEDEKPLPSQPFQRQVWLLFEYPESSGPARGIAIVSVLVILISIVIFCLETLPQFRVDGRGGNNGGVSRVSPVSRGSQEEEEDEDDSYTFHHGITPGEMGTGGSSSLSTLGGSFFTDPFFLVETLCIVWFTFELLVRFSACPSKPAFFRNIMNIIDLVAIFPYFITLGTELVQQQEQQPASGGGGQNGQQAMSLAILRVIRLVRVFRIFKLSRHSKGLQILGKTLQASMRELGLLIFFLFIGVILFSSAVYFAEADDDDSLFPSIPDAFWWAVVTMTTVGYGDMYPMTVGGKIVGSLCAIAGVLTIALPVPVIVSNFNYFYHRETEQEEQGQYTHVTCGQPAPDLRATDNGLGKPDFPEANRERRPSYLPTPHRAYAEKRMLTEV
T1 sequence (Q09470 whole entry): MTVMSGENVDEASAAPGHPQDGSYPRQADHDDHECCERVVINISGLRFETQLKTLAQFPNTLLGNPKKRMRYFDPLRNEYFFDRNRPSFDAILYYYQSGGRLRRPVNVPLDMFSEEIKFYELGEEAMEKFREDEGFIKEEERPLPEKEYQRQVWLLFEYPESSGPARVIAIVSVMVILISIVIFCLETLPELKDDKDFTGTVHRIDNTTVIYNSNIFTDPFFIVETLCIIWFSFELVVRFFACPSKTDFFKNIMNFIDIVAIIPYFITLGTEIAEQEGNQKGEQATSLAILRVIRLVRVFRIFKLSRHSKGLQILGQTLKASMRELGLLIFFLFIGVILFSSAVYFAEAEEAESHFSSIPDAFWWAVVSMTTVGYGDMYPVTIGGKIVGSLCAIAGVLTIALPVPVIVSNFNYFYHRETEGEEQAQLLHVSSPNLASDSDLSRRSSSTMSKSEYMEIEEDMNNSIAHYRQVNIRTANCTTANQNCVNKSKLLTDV
T2 sequence (P16389 whole entry): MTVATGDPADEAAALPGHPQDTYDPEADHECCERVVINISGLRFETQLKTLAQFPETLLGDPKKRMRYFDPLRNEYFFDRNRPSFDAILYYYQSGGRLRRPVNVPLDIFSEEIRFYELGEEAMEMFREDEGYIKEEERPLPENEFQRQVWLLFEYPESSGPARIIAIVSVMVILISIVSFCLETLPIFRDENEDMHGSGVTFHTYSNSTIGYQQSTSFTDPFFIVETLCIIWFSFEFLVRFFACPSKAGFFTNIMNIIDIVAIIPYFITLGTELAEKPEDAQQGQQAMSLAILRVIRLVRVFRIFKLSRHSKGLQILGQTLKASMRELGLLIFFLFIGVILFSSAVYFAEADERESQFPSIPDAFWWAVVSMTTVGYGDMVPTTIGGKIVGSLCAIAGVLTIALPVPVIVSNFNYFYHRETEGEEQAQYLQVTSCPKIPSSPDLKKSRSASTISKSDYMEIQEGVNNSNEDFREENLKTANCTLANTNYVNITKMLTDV

| Structure (SMILES) | Selectivity ratio Kv1.1/Kv1.3 (human Kv1.1) | Selectivity ratio Kv1.2/Kv1.3 (human Kv1.2) | Selectivity ratio Kv1.6/Kv1.3 (human Kv1.6) | IC50 (Rat whole blood) [nM] |
| --- | --- | --- | --- | --- |
| CCCC[C@@H]1NC(=O)[C@@H]2CSSC[C@H](NC(=O)[C@@H](N)CCCNC(=N)N)C(=O)N[C@@H](CO)C(=O)N[C@@H](C)C(=O)N[C@@H](CO)C(=O)N[C@@H](C(C)C)C(=O)N[C@@H](CCC(=O)O)C(=O)N[C@H]3CSSC[C@H](NC(=O)[C@H](CCCCN)NC(=O)[C@H](CCCCN)NC(=O)[C@H](CC(N)=O)NC1=O)C(=O)N[C@@H](CCCCN)C(=O)N[C@H](C(=O)N[C@@H](Cc1ccc(O)cc1)C(=O)N1CCC[C@H]1C(=O)N[C@@H](CCCNC(=N)N)C(N)=O)CSSC[C@H](NC(=O)[C@H](CCCCN)NC(=O)[C@H](CCC(N)=O)NC(=O)[C@H](CCCCN)NC3=O)C(=O)N[C@@H](CC(C)C)C(=O)N[C@@H](CCCCN)C(=O)N[C@@H](C)C(=O)N[C@@H]([C@@H](C)CC)C(=O)NCC(=O)N[C@@H](CO)C(=O)N[C@@H]([C@@H](C)CC)C(=O)N[C@@H](Cc1ccccc1)C(=O)NCC(=O)N[C@@H](CCCCN)C(=O)N2 [compound 100] (H-RCSASVECKQKCLKAIGSIFGKC[Nle]NKKCKCYPR-NH2; disulfide 2-23, 8-28, 12-30) | >7600 | 708 | 3290 | 0.52 |
| CC[C@H](C)[C@@H]1NC(=O)[C@H](C)NC(=O)[C@H](CCCCN)NC(=O)[C@H](CC(C)C)NC(=O)[C@@H]2CSSC[C@@H](C(=O)N[C@@H](Cc3ccc(O)cc3)C(=O)N3CCC[C@H]3C(=O)N[C@@H](CCCNC(=N)N)C(N)=O)NC(=O)[C@H](CCCCN)NC(=O)[C@@H]3CSSC[C@H](NC(=O)[C@H](CCC(=O)O)NC(=O)[C@H](C(C)C)NC(=O)[C@H](CO)NC(=O)[C@H](C)NC(=O)[C@H](CO)NC(=O)[C@@H](NC(=O)[C@H](CCCNC(=N)N)NC(=O)[C@H](CCSC)NC(=O)[C@H](CC(=O)O)NC(=O)[C@H](CCSC)NC(=O)[C@@H](N)CC(N)=O)CSSC[C@H](NC(=O)[C@H](CCCCN)NC(=O)CNC(=O)[C@H](Cc4ccccc4)NC(=O)[C@H]([C@@H](C)CC)NC(=O)[C@H](CO)NC(=O)CNC1=O)C(=O)N[C@@H](CCSC)C(=O)N[C@@H](CC(N)=O)C(=O)NCC(=O)N[C@@H](CCCCN)C(=O)N3)C(=O)N[C@@H](CCCCN)C(=O)N[C@@H](CCC(N)=O)C(=O)N[C@@H](CCCCN)C(=O)N2 [compound 40] (H-NMDMRCSASVECKQKCLKAIGSIFGKCMNGKCKCYPR-NH2; disulfide 6-27, 12-32, 16-34) | >9700 | 1422 | >9700 | 1.2 |
| CCCC[C@@H]1NC(=O)[C@@H]2CSSC[C@H](NC(=O)[C@H](CCCNC(=N)N)NC(=O)[C@H](CCCC)NC(=O)[C@H](CC(=O)O)NC(=O)[C@H](CCCC)NC(=O)[C@@H](N)CC(N)=O)C(=O)N[C@@H](CCCNC(=N)N)C(=O)N[C@@H](C)C(=O)N[C@@H](CO)C(=O)N[C@@H](C(C)C)C(=O)N[C@@H](CCC(=O)O)C(=O)N[C@H]3CSSC[C@H](NC(=O)[C@H](CCCCN)NC(=O)[C@H](CCCCN)NC(=O)[C@H](CC(N)=O)NC1=O)C(=O)N[C@@H](CCCCN)C(=O)N[C@H](C(=O)N[C@@H](Cc1ccc(O)cc1)C(=O)N1CCC[C@H]1C(=O)N[C@@H](CCCNC(=N)N)C(N)=O)CSSC[C@H](NC(=O)[C@H](CCCCN)NC(=O)[C@H](CCC(N)=O)NC(=O)[C@H](CCCCN)NC3=O)C(=O)N[C@@H](CC(C)C)C(=O)N[C@@H](CCCCN)C(=O)N[C@@H](C)C(=O)N[C@@H]([C@@H](C)CC)C(=O)NCC(=O)N[C@@H](CO)C(=O)N[C@@H]([C@@H](C)CC)C(=O)N[C@@H](Cc1ccccc1)C(=O)NCC(=O)N[C@@H](CCCCN)C(=O)N2 [compound 46] (H-N[Nle]D[Nle]RCRASVECKQKCLKAIGSIFGKC[Nle]NKKCKCYPR-NH2; disulfide 6-27, 12-32, 16-34) | >18600 | 674 | 1954 | 0.91 |
| CCCC[C@@H]1NC(=O)[C@@H]2CSSC[C@H](NC(=O)[C@H](CCCNC(=N)N)NC(=O)[C@H](CCCC)NC(=O)[C@H](CO)NC(=O)[C@H](CCCC)NC(=O)[C@@H](N)CC(N)=O)C(=O)N[C@@H](CO)C(=O)N[C@@H](C)C(=O)N[C@@H](CO)C(=O)N[C@@H](C(C)C)C(=O)N[C@@H](CCC(=O)O)C(=O)N[C@H]3CSSC[C@H](NC(=O)[C@H](CCCCN)NC(=O)[C@H](CCCCN)NC(=O)[C@H](CC(N)=O)NC1=O)C(=O)N[C@@H](CCCCN)C(=O)N[C@H](C(=O)N[C@@H](Cc1ccc(O)cc1)C(=O)N1CCC[C@H]1C(=O)N[C@@H](CCCNC(=N)N)C(N)=O)CSSC[C@H](NC(=O)[C@H](CCCCN)NC(=O)[C@H](CCC(N)=O)NC(=O)[C@H](CCCCN)NC3=O)C(=O)N[C@@H](CC(C)C)C(=O)N[C@@H](CCCCN)C(=O)N[C@@H](C)C(=O)N[C@@H]([C@@H](C)CC)C(=O)NCC(=O)N[C@@H](CO)C(=O)N[C@@H]([C@@H](C)CC)C(=O)N[C@@H](Cc1ccccc1)C(=O)NCC(=O)N[C@@H](CCCCN)C(=O)N2 [compound 50] (H-N[Nle]S[Nle]RCSASVECKQKCLKAIGSIFGKC[Nle]NKKCKCYPR-NH2; disulfide 6-27, 12-32, 16-34) | >9400 | 943 | 4359 | 0.79 |
| CCCC[C@@H]1NC(=O)[C@@H]2CSSC[C@H](NC(=O)[C@H](CCCNC(=N)N)NC(=O)[C@H](CCCC)NC(=O)[C@H](CC(=O)O)NC(=O)[C@H](CCCC)NC(=O)[C@@H](N)CC(N)=O)C(=O)N[C@@H](CO)C(=O)N[C@@H](C)C(=O)N[C@@H](CO)C(=O)N[C@@H](C(C)C)C(=O)N[C@@H](CCC(=O)O)C(=O)N[C@H]3CSSC[C@H](NC(=O)[C@H](CCCCN)NC(=O)[C@H](CCCCN)NC(=O)[C@H](CC(N)=O)NC1=O)C(=O)N[C@@H](CCCCN)C(=O)N[C@H](C(=O)N[C@@H](Cc1ccc(O)cc1)C(=O)N1CCC[C@H]1C(=O)N[C@@H](CCCNC(=N)N)C(N)=O)CSSC[C@H](NC(=O)[C@H](CCCCN)NC(=O)[C@H](CCC(N)=O)NC(=O)[C@H](CCCCN)NC3=O)C(=O)N[C@@H](CC(C)C)C(=O)N[C@@H](CCCCN)C(=O)N[C@@H](C)C(=O)N[C@@H]([C@@H](C)CC)C(=O)NCC(=O)N[C@@H](CO)C(=O)N1CCC[C@H]1C(=O)N[C@@H](Cc1ccccc1)C(=O)NCC(=O)N[C@@H](CCCCN)C(=O)N2 [compound 62] (H-N[Nle]D[Nle]RCSASVECKQKCLKAIGSPFGKC[Nle]NKKCKCYPR-NH2; disulfide 6-27, 12-32, 16-34) | >11600 | 1740 | 9102 | 0.44 |
